In patent publication US20120295982A1, “TREATING HUMAN MALE COPD PATIENTS WITH ORAL BEDORADRINE” (MediciNova, Inc., priority 2011, published 2012):
Structures can show the parent of a compound that is named as a salt.

Tests used:
[1] = Phase I open-label single-dose crossover oral bioavailability / PK test of bedoradrine sulfate in healthy volunteers; type: in vivo, human; conditions: for clearance: CL; for Vd: Vss; for half-life: t½
Procedure: The test was an open-label, randomized, crossover, single dose test of 600 μg (0.6 mg) bedoradrine sulfate in liquid form administered orally and of 300 μg (0.3 mg) bedoradrine sulfate administered by i.v. infusion. All subjects were in an overnight fasting state. Four male and four female subjects were enrolled in the test and received two administration sequences: Day 1: n=4 received 15-minute intravenous infusion of bedoradrine sulfate (300 μg), the other 4 received an oral administration of bedoradrine sulfate (600 μg); Day 8: the 4 subjects administered i.v. MN-221 on Day 1, received oral bedoradrine sulfate and the 4 subjects administered orally with MN-221 on Day 1, receive i.v. bedoradrine sulfate. Subjects were domiciled in the clinical research unit (CRU) for two nights, beginning on Day minus one (−1), one day prior to dosing. First dosing occurred in the morning of Day 1. Subjects were discharged from the CRU approximately 24 hours after dosing (Day 2). There was a one-week washout between doses and subjects returned to the CRU (Day 7) and were domiciled for two days. On the morning of Day 8, subjects received the opposite dosing state (from Day 1) and subjects were then discharged from the CRU approximately 24 hours after dosing (Day 9). Blood samples for plasma selection and bioanalysis were collected on the dosing days before dosing (baseline) and at 0.25, 1, 1.5, 2, 3, 4, 6, 9, 12, and 24 hr after dosing. The bioanalytical results were obtained following HPLC/MS/MS procedures. The limit of quantitation (LLOQ) for these methods was 30.3 picogram (pg)/mL. Plasma MN-221 concentrations were tabulated separately by subject and sampling time and summarized by descriptive statistics. Descriptive statistics included the sample size, mean, standard deviation, median, range, and the coefficient of variation (CV %). Mean plasma concentration-time profiles were illustrated graphically. All plasma concentrations below the limit of quantitation (BLQ) values occurring at predose and up to the first measurable concentration may otherwise be imputed as 1 pg/mL in some analyses or LLOQ. Pharmacokinetic parameters were calculated from individual plasma concentrations-time data by model-independent analysis methods using WinNonlin™. The following parameters were calculated: Cmax (observed maximum plasma concentration), tmax (observed time of maximum plasma concentration), t1/2 (terminal half-life calculated as ln(2)/λz), AUC0-24 (area under the plasma concentration-time curve calculated using the linear trapezoidal rule from time zero to time 24 hr), vss (volume of distribution at steady state), Cl (clearance), and Oral F % (% oral bioavailability). All pharmacokinetic parameters were summarized using descriptive statistics that included the sample size, mean, standard deviation, median, range, and coefficient of variation. Select t-test or non-parametric statistical analysis was optional.

[2] = test system: moderate-to-severe COPD patients; test: Phase Ib placebo-controlled test of i.v. MN-221 in moderate-to-severe COPD patients; type: in vivo, human; conditions: for FEV1 increase as compared to baseline (average): end of infusion
Procedure: This example provides certain preferred oral dosages for treating male COPD patients according to this invention. A randomized, double-blind, placebo-controlled phase Ib clinical test evaluated MN-221 in 48 moderate-to-severe COPD patients who received a 1 hour intravenous (i.v.) infusion of MN-221 at three different escalating dose levels (300 micrograms, 600 micrograms, or 1200 micrograms) or placebo.
(a) diagnosed (e.g., by clinical history, 20 pack/year smoking history, physical examination [PE], and spirometry) COPD treated for ≧3 months prior to Screen Visit 1; (b) ≧30% FEV1<80% and FEV1/FVC (forced vital capacity) ratio<0.7 at Screen Visits 1 and 2; and (c) increase in FEV1 of 12%, over the pre-albuterol FEV1 within 30 min after inhalation of up to 4 puffs of albuterol delivered by Metered Dose Inhaler (MDI) with spacer at the Screen Visit 1.
48 subjects with stable, moderate-to-severe chronic obstructive pulmonary disease were administered MN-221. The following does were administered. 10 μg/min for 15 min+3.3 μg/min for 45 min (1-hr infusion total dose 300 μg) or placebo; 20 μg/min for 15 min+6.67 μg/min for 45 min (1-hr infusion total dose 600 μg) or placebo; and 40 μg/min for 15 min+13.3 μg/min for 45 min (1-hr infusion total dose 1,200 μg) or placebo.

[3] = both sexes, human, in vivo, iv, 300 ug, mean
[4] = both sexes, human, in vivo, iv, 300 ug, median
[5] = both sexes, human, in vivo, iv, 300 ug, range
[6] = both sexes, human, in vivo, po, 600 ug, mean
[7] = both sexes, human, in vivo, po, 600 ug, median
[8] = both sexes, human, in vivo, po, 600 ug, range
[9] = both, human, in vivo, po, 600 ug
[10] = female, human, in vivo, po, 600 ug
[11] = human one, in vivo, iv, 300 ug, individual subject
[12] = human two, in vivo, iv, 300 ug, individual subject

fold lower oral peak level than Cmax after i.v. dosing ([1]; 0.6 mg oral vs 0.3 mg i.v.): > 30 fold
AUC ([1]; both sexes, human, in vivo, iv, 0.3 mg): ~13 ng·h/mL
AUC(0-t) ([1]; both sexes, human, in vivo, iv, 300 ug, AUC 0-24 h, mean): 13.2 ng·h/mL
AUC(0-t) ([1]; both sexes, human, in vivo, iv, 300 ug, AUC 0-24 h, median): 14.1 ng·h/mL
AUC(0-t) ([1]; both sexes, human, in vivo, iv, 300 ug, AUC 0-24 h, range): 9.31 to 15.5 ng·h/mL
clearance [1, 3]: 322 mL/min
clearance [1, 4]: 307 mL/min
clearance [1, 5]: 252 to 425 mL/min
Cmax ([1]; both sexes, human, in vivo, iv, 300 ug, Cmax, mean): 10.7 ng/mL
Cmax ([1]; both sexes, human, in vivo, iv, 300 ug, Cmax, median): 12.2 ng/mL
Cmax ([1]; both sexes, human, in vivo, iv, 300 ug, Cmax, range): 6.76 to 14.8 ng/mL
Tmax [1, 3]: 0.25 h
Tmax [1, 4]: 0.25 h
Vd [1, 3]: 222 L
Vd [1, 4]: 206 L
Vd [1, 5]: 149 to 325 L
half-life [1, 3]: 12.2 h
half-life [1, 4]: 12.5 h
half-life [1, 5]: 7.4 to 14.6 h
AUC(0-t) ([1]; both sexes, human, in vivo, po, 600 ug, AUC 0-24 h, mean): 1.94 ng·h/mL
AUC(0-t) ([1]; both sexes, human, in vivo, po, 600 ug, AUC 0-24 h, median): 1.85 ng·h/mL
AUC(0-t) ([1]; both sexes, human, in vivo, po, 600 ug, AUC 0-24 h, range): 1.05 to 3.02 ng·h/mL
Cmax ([1]; both sexes, human, in vivo, po, 600 ug, Cmax, mean): 0.305 ng/mL
Cmax ([1]; both sexes, human, in vivo, po, 600 ug, Cmax, median): 0.301 ng/mL
Cmax ([1]; both sexes, human, in vivo, po, 600 ug, Cmax, range): 0.163 to 0.5 ng/mL
Tmax [1, 6]: 1.2 h
Tmax [1, 7]: 1.5 h
Tmax [1, 8]: 0.25 to 2 h
half-life [1, 6]: 16 h
half-life [1, 7]: 15.2 h
half-life [1, 8]: 11 to 23 h
fold lower AUC following oral dosing than at the i.v. dose ([1]; both, human, in vivo): about 7 fold
time at which plasma concentrations peaked ([1]; both, human, in vivo, iv): 0.25 h
time to reach maximal plasma concentrations ([1]; both, human, in vivo, po): ≤ 2 h
Tmax, median [1, 9]: approximately 1.5 hr
t½, mean [1, 9]: 16.1 h
AUC(0-t) ([1]; female, human, in vivo, iv, 300 ug, AUC0-24 h mean): 14.9 ng·h/mL
AUC(0-t) ([1]; female, human, in vivo, iv, 300 ug, AUC0-24 h range): 13.9 to 15.5 ng·h/mL
Cmax ([1]; female, human, in vivo, iv, 300 ug, Cmax mean): 13.1 ng/mL
Cmax ([1]; female, human, in vivo, iv, 300 ug, Cmax range): 12.1 to 14.8 ng/mL
oral F % mean [1, 10]: 4.9%
oral F % range [1, 10]: 3.4-6.1%
AUC(0-t) ([1]; female, human, in vivo, po, 600 ug, AUC0-24 h mean): 1.45 ng·h/mL
AUC(0-t) ([1]; female, human, in vivo, po, 600 ug, AUC0-24 h range): 1.05 to 1.79 ng·h/mL
Cmax ([1]; female, human, in vivo, po, 600 ug, Cmax mean): 0.221 ng/mL
Cmax ([1]; female, human, in vivo, po, 600 ug, Cmax range): 0.163 to 0.299 ng/mL
AUC(0-t) ([1]; human one, in vivo, iv, 300 ug, AUC 0-24 h, individual subject): 10.7 ng·h/mL
clearance [1, 11]: 423 mL/min
Cmax ([1]; human one, in vivo, iv, 300 ug, Cmax, individual subject): 6.76 ng/mL
Tmax [1, 11]: 0.25 h
AUC(0-t) ([1]; human one, in vivo, po, 600 ug, AUC 0-24 h, individual subject): 2.14 ng·h/mL
Tmax ([1]; human one, in vivo, po, 600 ug, individual subject): 1.5 h
AUC(0-t) ([1]; human two, in vivo, iv, 300 ug, AUC 0-24 h, individual subject): 15.5 ng·h/mL
clearance [1, 12]: 252 mL/min
Cmax ([1]; human two, in vivo, iv, 300 ug, Cmax, individual subject): 14.8 ng/mL
Tmax [1, 12]: 0.25 h
Vd [1, 12]: 225 L
half-life [1, 12]: 14.6 h
AUC(0-t) ([1]; human two, in vivo, po, 600 ug, AUC 0-24 h, individual subject): 1.05 ng·h/mL
Cmax ([1]; human two, in vivo, po, 600 ug, Cmax, individual subject): 0.163 ng/mL
oral F % in men relative to women ([1]; human, in vivo, po, 600 ug): two-fold greater
AUC(0-t) ([1]; male, human, in vivo, iv, 300 ug, AUC0-24 h mean): 11.5 ng·h/mL
AUC(0-t) ([1]; male, human, in vivo, iv, 300 ug, AUC0-24 h range): 9.31 to 14.3 ng·h/mL
Cmax ([1]; male, human, in vivo, iv, 300 ug, Cmax mean): 8.42 ng/mL
Cmax ([1]; male, human, in vivo, iv, 300 ug, Cmax range): 6.76 to 12.3 ng/mL
oral F % mean ([1]; male, human, in vivo, po, 600 ug): 11.1%
AUC(0-t) ([1]; male, human, in vivo, po, 600 ug, AUC0-24 h mean): 2.44 ng·h/mL
AUC(0-t) ([1]; male, human, in vivo, po, 600 ug, AUC0-24 h range): 1.91 to 3.02 ng·h/mL
Cmax ([1]; male, human, in vivo, po, 600 ug, Cmax mean): 0.389 ng/mL
Cmax ([1]; male, human, in vivo, po, 600 ug, Cmax range): 0.303 to 0.5 ng/mL
SMILES: CN(C)C(=O)COc1ccc2c(c1)C[C@@H](NC[C@H](O)c1ccc(O)c(CCO)c1)CC2 [MN-221, bedoradrine sulfate]
FEV1 increase as compared to baseline (average) ([2]; 300 microgram 1-hr i.v. infusion, p=NS): 9.2%
Mean changes in PEFR (L/sec) ([2]; 600 and 1200 μg i.v. groups, greatest during 1-3 hr post infusion): higher than the all placebo group
Mean changes in PEFR (% predicted) ([2]; 600 and 1200 μg i.v. groups, greatest in first 3-4 hr post-infusion): higher than the all placebo group
FEV1 increase as compared to baseline (average) ([2]; 600 microgram 1-hr i.v. infusion, p=0.020): 16.2%
FEV1 increase as compared to baseline (average) ([2]; 1200 microgram 1-hr i.v. infusion, p=0.0025): 21.5%
FEV1 (%, predicted) ([2]; MN-221 treated subjects, i.v. infusion): improved
tolerability ([2]; i.v. infusions 300-1200 μg, COPD patients): well tolerated
